According to patent publication EP0567613B1, “COMPOSITIONS FOR THERAPY AND PREVENTION OF CANCER” (The Government of the United States of America, as …, priority 1991, dated 1993):
Where two headings read alike, the source gives them in different places.

What was measured:
[1] = tested on: Prostate Adenocarcinoma PC3; assay: Tumor cell growth / proliferation; type: cell-based; conditions: Homo sapiens
Description: (§1) Studies of depth were performed with two androgenindependent human prostate adenocarcinoma cell lines, PC3 and DU145, established from bone and brain metastases, respectively.

DU145 = assay: Tumor cell growth / proliferation; type: cell-based; conditions: Homo sapiens
Description: as §1

lung adenocarcinoma H596 = assay: Tumor cell growth / proliferation; type: cell-based; conditions: Homo sapiens, NCI-H596; read-out: concentration causing about 50% inhibition of growth
Melanoma SK MEL 28 = assay: Tumor cell growth / proliferation; type: cell-based; conditions: Homo sapiens
10T1/2 = assay: Cell proliferation (cell number); type: cell-based, mouse; conditions: treated for four days
Description: The adherent cells were detached with trypsin/EDTA and the cell number determined using a hemocytometer. Data points indicate the mean ± S.D. of duplicates from two independent experiments. The cell lines were obtained from the American Type Culture Collection and maintained in RPMI 1640 (HL-60) or Dulbecco's Modified Eagle's Medium (10T1/2) supplemented with 10% heat inactivated fetal calf serum (Gibco Laboratories), 2 mM L-Glutamine, and antibiotics.

[2] = tested on: the malignant or the normal cells; assay: Cytotoxicity in tissue culture; type: cell-based; conditions: growth-inhibitory concentrations
Text: (§2) A differential effect was seen also in ras-transformed fibrosarcoma V7T, when compared to the parental non-tumorigenic N1H3T3 cells.
(§3) The concentration range found to selectively suppress malignant growth can be readily obtained in the clinical setting without causing significant side effects.

[3] = Cytotoxicity in tissue culture; type: cell-based; conditions: tissue culture; read-out: concentration at which cytotoxicity was observed
Text: as §2, §3

collagenase type IV = assay: Northern blot analysis in PC3 cells; type: cell-based, human; conditions: NaPA treated PC3 cells
Astrocytoma U87 = assay: Tumor cell growth / proliferation; type: cell-based
[4] = tested on: NIH 3T3 cells carrying activated EJras oncogene; assay: Prevention of neoplastic transformation, oncogene transfer (ras-transformed foci); type: cell-based; conditions: treatment initiated 24-48 hr after oncogene transfer, scored 14-21 days later
Text: Left: Untreated control cells at about 3 weeks after DNA transfer. Middle: control of cells with as oncogenes, showing the rate of spontaneous transformation. Right: Oncogene-transfected cells, […] with NaPA.
The effect was reversible upon cessation of treatment. In treated humans, however, the fate of the premalignant cells may be substantially different due to involvement of humoral and cellular immunity (see below).

[5] = tested on: premalignant 10T1/2 cells; assay: cells
Description: C. Quantitation of adipocytosis. Lipids stained with Oil-Red O were extracted with butanol, and the optical density at 510 nm determined.
Lower: Quantitation of adipocytosis. Cells were fixed with 37% formaldehyde and stained with Oil-Red O. The stained intracellular lipid was extracted with butanol, and the optical density was determined using a Titertek Multiskan MC, manufactured by Flow Laboratories, at a wavelength 510 nm.

[6] = tested on: premalignant 4C8 and 10T1/2 cells; assay: Prevention of 5-AzadC-induced malignant conversion in culture; type: cell-based; conditions: NaPA 0.8-1.6 mg/ml, cells exposed to 5-AzadC
Text: It is known that the treatment of premalignant 4C8 and 10T1/2 cells with carcinogens such as 5-AzadC produces malignant conversion of the respective cells. When 4C8 [Remold: et al., Cancer Research, 51:1-7 (1990)] and 10T1/2 cells were exposed to 5-AzadC, malignant conversion was evident in two days and two weeks, respectively.

myc = assay: Northern blot analysis of myc mRNA in HL-60; type: cell-based, human; conditions: HL-60, NaPA 0.8 mg/ml
Description: Cytoplasmic RNA (20 µg/lane) was subjected to Northern blot analysis using ^32P-labeled specific DNA probes. Ethidium bromide-stained […] indicates the relative amounts of total RNA in each lane. Figure A. Induction of a P2 expression in 10T1/2 cells. […] Figure B. Kinetics of myc inhibition and HLA-A induction in HL-60. […] Figure C. Dose-dependent and specificity of effect.
In HL-60, cell transformation has been linked to myc amplification and overexpression, and differentiation would typically require down regulation of myc expression. [Collins, S.J. The HL-60 promyelocytic leukemia cell line: Proliferation, differentiation, and cellular oncogene expression. Blood. 70:1233-1244 (1987)]. […] The 32P-labeled probes used were myc 3rd exon (Oncor) and HLA-A3 Hind III/EcoRI fragment. […] This occurred within 4 hours of treatment, preceding the phenotypic changes detectable by 48 hrs, approximately two cell cycles, after treatment. Similar kinetics of myc inhibition have been reported for other differentiation agents such as dimethyl sulfoxide, sodium butyrate, bromodeoxyuridine, retinoids, and 1,25-dihydroxyvitamin D3. […] It is believed that this may enhance the immunogenicity of tumors in vivo.

Prostatic Ca LaNCoP = assay: Tumor cell growth / proliferation; type: cell-based; conditions: read-out: % Inhibition by NaPA 0.8 mg/ml
4C8a10 cells = assay: Malignant phenotype in culture / growth on matrigel; type: cell-based
Description: (§4) The experimental model involved nonmalignant 4C8a10 cells (revertants of Haras-transformed NIH3T3 fibroblasts). […]
^b Cells were plated on top of matrigel (reconstituted basement membrane) and observed for malignant growth pattern, i.e., active replication, development of characteristic processes, and invasion.

HLA-A mRNA = assay: Northern blot analysis in PC3 cells; type: cell-based, human; conditions: NaPA treated PC3 cells
[7] = tested on: 4C8a10 cells (revertants of Haras-transformed NIH3T3 fibroblasts); assay: Tumor formation of cells pretreated in culture and injected s.c. into athymic nude mice; type: in vivo; conditions: cells pretreated with NaPA 1.5 mg/ml; after 3 weeks
Text: One-two weeks later the cells were transplanted subcutaneously into athymic mice.
as §4
Frederick Cancer Research Facility).

[8] = tested on: Erythroleukemia K562 cells; assay: Induction of hemoglobin synthesis (benzidine staining, protein quantitation); conditions: for Benzidine Positive Cells: seven days
[9] = read-out: % Inhibition by NaPA 0.8 mg/ml, 0.8 mg/ml

O=C([O-])Cc1ccccc1.[Na+] [NaPA, sodium phenylacetate]
IC50 [1]: 600 to 800 µg/mL
viability at 800 µg/mL ([1]; PC-3): > 95%
activity at 800 µg/mL ([1]; PC-3, read-out: Growth): 59.6%
IC50 ([1]; PC-3, read-out: concentration causing about 50% inhibition of growth): 400 to 800 µg/mL
inhibition at 800 µg/mL ([1]; read-out: % Inhibition by NaPA 0.8 mg/ml): ≥ 50%
IC50 (DU145; DU-145, growth arrest, read-out: IC50): 600 to 800 µg/mL
inhibition at 800 µg/mL (DU145; DU-145, read-out: % Inhibition by NaPA 0.8 mg/ml, 0.8 mg/ml): ≥ 50%
IC50 (DU145; DU-145, read-out: concentration causing about 50% inhibition of growth): 400 to 800 µg/mL
IC50 (lung adenocarcinoma H596): 400 to 800 µg/mL
inhibition at 800 µg/mL (Melanoma SK MEL 28; [9]): > 50%
IC50 (Melanoma SK MEL 28; read-out: concentration causing about 50% inhibition of growth): 400 to 800 µg/mL
cell proliferation (10T1/2): dose dependent inhibition of cell proliferation
toxicity of the treatment to cells [2]: not toxic to either the malignant or the normal cells
MCC [3]: > 3000 µg/mL
expression of collagenase type IV (collagenase type IV): inhibited the expression of collagenase type IV
IC50 (Astrocytoma U87; Homo sapiens, U-87 MG, read-out: concentration causing about 50% inhibition of growth): 400 to 800 µg/mL
inhibition at 800 µg/mL (Astrocytoma U87; [9]): ≥ 50%
formation of ras-transformed foci [4]: dose-dependent reduction in the formation of ras-transformed foci
cytotoxic effect ([5]; 800 µg/ml): totally free of cytotoxic effect
Differentiation at 1 mM ([5]; 1 mM, sodium salts): 65%
adipocyte conversion, share of the cell population ([5]; 10T1/2 model): over 80%
DC50 ([5]; Mus musculus, Adipocyte, read-out: DC50, concentration of compound causing 50% differentiation): 700 µM
appearance of the malignant phenotype (cell morphology, contact inhibition, anchorage dependent growth) [6]: prevented the appearance of the malignant phenotype
time to decline in the amounts of myc mRNA (myc): ≤ 4 h
inhibition at 800 µg/mL (Prostatic Ca LaNCoP): > 50%
Growth on matrigel (4C8a10 cells; NaPA 1.5 mg/ml): -
development of the malignant phenotype (4C8a10 cells; in 5-AzadC treated cultures): prevented the development of the malignant phenotype
level of HLA-A mRNA (HLA-A mRNA): an increase in the level of HLA-A mRNA
Tumor Formation Incidence [7]: 0/8
hemoglobin accumulation, increase over control cells ([8]; 0.8 and 1.6 mg/ml): 4-9 fold
Benzidine Positive Cells ([8]; NaPA 0.8 mg/ml): 6.0%
Benzidine Positive Cells ([8]; NaPA 1.6 mg/ml): 17.1%
